Measured values as given in US11667667B2, “Steroid derivative FXR agonist” (Chia Tai Tianqing Pharmaceutical Group Co., Ltd., priority 2016, dated 2023).

These compounds were tested against T1, Glutathione-S-transferase-labeled FXR human protein (Homo sapiens, UniProt Q96RI1) (assay: FXR biochemical experiment (AlphaScreen, coactivator recruitment)). Conditions: AlphaScreen, GST-FXR human protein + biotin-labeled steroid receptor coactivator; read-out: FXR enzyme activity EC50.
T1 construct: purchased Invitrogen
T1 sequence (Q96RI1 1-486): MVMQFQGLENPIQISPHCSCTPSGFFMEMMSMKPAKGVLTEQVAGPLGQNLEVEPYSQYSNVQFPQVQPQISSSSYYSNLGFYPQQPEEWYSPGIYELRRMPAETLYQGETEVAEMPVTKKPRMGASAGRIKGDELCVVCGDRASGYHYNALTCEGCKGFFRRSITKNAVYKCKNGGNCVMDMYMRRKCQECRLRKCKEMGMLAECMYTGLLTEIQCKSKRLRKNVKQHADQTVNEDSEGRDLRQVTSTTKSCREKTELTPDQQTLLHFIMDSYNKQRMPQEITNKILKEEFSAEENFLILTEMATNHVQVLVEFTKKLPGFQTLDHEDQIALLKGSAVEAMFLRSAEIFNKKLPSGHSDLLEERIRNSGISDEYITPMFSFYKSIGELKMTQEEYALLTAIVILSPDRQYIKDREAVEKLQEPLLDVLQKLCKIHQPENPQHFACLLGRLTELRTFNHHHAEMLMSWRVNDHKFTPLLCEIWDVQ
Description: FXR Biochemical Experiment Experimental Purpose: The activation effect of the compound on FXR binding reaction was detected by AlphaScreen. […] Protein: Glutathione-S-transferase-labeled FXR human protein (Invitrogen) 2. Co-activator: Biotin-labeled steroid receptor coactivator (Anaspec) 3. […] Compound Dilution: The compound to be tested was prepared as a 40 μM DMSO solution, and then diluted 3-fold to 10 concentration points. The reference compound was prepared as a 400 μM DMSO solution, and then diluted 1.5-fold to 10 concentration points. The diluted DMSO solution was added to the wells of a 384-well plate in a volume of 150 nL per well. 2. […] 4. […] The operation during the experimental process was protected from light. The incubation was performed for 1 hour at room temperature. 5. […] The operation during the experimental process was protected from light. The incubation was performed for 1 hour at room temperature. 6. EC50 test: Envision was used with excitation at 680 nm to read the […] signals at 520-620 nm. 7. Analytical data: The data were analyzed via using Prism 5.0, and the EC50 values of the activation effects of the compounds were calculated.
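Wherever FXR cell activity Efficacy is given: Emax relative to maximal signal of reference agonist chenodeoxycholic acid (CDCA).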

Row | SMILES | EC50
1 | CC[C@H]1[C@@H](O)[C@@H]2[C@H](CC[C@]3(C)[C@@H]([C@H](C)CCn4cc(C(=O)O)ccc4=O)CC[C@@H]23)[C@@]2(C)CC[C@@H](O)C[C@@H]12 [Example 5] | 90 nM
2 | CC[C@H]1[C@@H](O)[C@@H]2[C@H](CC[C@]3(C)[C@@H]([C@H](C)CCn4ccc(C(=O)O)cc4=O)CC[C@@H]23)[C@@]2(C)CC[C@@H](O)C[C@@H]12 [Example 6] | 360 nM
3 | CC[C@H]1[C@@H](O)[C@@H]2[C@H](CC[C@]3(C)[C@@H]([C@H](C)CCOc4cccc(C(=O)O)c4)CC[C@@H]23)[C@@]2(C)CC[C@@H](O)C[C@@H]12 [Example 7] | 30 nM
4 | CC[C@H]1[C@@H](O)[C@@H]2[C@H](CC[C@]3(C)[C@@H]([C@H](C)CCOc4cc(C(=O)O)ccn4)CC[C@@H]23)[C@@]2(C)CC[C@@H](O)C[C@@H]12 [Example 9] | 160 nM
5 | CC[C@H]1[C@@H](O)[C@@H]2[C@H](CC[C@]3(C)[C@@H]([C@H](C)CCOc4ccc(C(=O)O)nc4)CC[C@@H]23)[C@@]2(C)CC[C@@H](O)C[C@@H]12 [Example 10] | 60 nM
6 | CC[C@H]1[C@@H](O)[C@@H]2[C@H](CC[C@]3(C)[C@@H]([C@H](C)CCCn4cc(C(=O)O)ccc4=O)CC[C@@H]23)[C@@]2(C)CC[C@@H](O)C[C@@H]12 [Example 17] | 600 nM
7 | CC[C@H]1[C@@H](O)[C@@H]2[C@H](CC[C@]3(C)[C@@H]([C@H](C)CCc4cccc(C(=O)O)c4)CC[C@@H]23)[C@@]2(C)CC[C@@H](O)C[C@@H]12 [Example 19] | 150 nM

Same assay, conditions: ratio of highest signal of the compound to that of the reference compound; read-out: FXR enzyme activity Efficacy

Row | SMILES | Emax
8 | CC[C@H]1[C@@H](O)[C@@H]2[C@H](CC[C@]3(C)[C@@H]([C@H](C)CCn4cc(C(=O)O)ccc4=O)CC[C@@H]23)[C@@]2(C)CC[C@@H](O)C[C@@H]12 [Example 5] | 134%
9 | CC[C@H]1[C@@H](O)[C@@H]2[C@H](CC[C@]3(C)[C@@H]([C@H](C)CCn4ccc(C(=O)O)cc4=O)CC[C@@H]23)[C@@]2(C)CC[C@@H](O)C[C@@H]12 [Example 6] | 375%
10 | CC[C@H]1[C@@H](O)[C@@H]2[C@H](CC[C@]3(C)[C@@H]([C@H](C)CCOc4cccc(C(=O)O)c4)CC[C@@H]23)[C@@]2(C)CC[C@@H](O)C[C@@H]12 [Example 7] | 360%
11 | CC[C@H]1[C@@H](O)[C@@H]2[C@H](CC[C@]3(C)[C@@H]([C@H](C)CCOc4cc(C(=O)O)ccn4)CC[C@@H]23)[C@@]2(C)CC[C@@H](O)C[C@@H]12 [Example 9] | 407%
12 | CC[C@H]1[C@@H](O)[C@@H]2[C@H](CC[C@]3(C)[C@@H]([C@H](C)CCOc4ccc(C(=O)O)nc4)CC[C@@H]23)[C@@]2(C)CC[C@@H](O)C[C@@H]12 [Example 10] | 188%
13 | CC[C@H]1[C@@H](O)[C@@H]2[C@H](CC[C@]3(C)[C@@H]([C@H](C)CCCn4cc(C(=O)O)ccc4=O)CC[C@@H]23)[C@@]2(C)CC[C@@H](O)C[C@@H]12 [Example 17] | 313%
14 | CC[C@H]1[C@@H](O)[C@@H]2[C@H](CC[C@]3(C)[C@@H]([C@H](C)CCc4cccc(C(=O)O)c4)CC[C@@H]23)[C@@]2(C)CC[C@@H](O)C[C@@H]12 [Example 19] | 251%

What follows are compounds tested against T2, FXR (FXR HEK 293T DA cell line) (Homo sapiens, UniProt Q96RI1) (assay: FXR cell experiment (β-lactamase reporter gene, GeneBLAzer)). Conditions: FXR HEK 293T DA cells, β-lactamase reporter, 16 hours.
T2 construct: expressed in transfected cells; host or cells: HEK 293T (FXR HEK 293T DA)
Type: cell-based
Description: Compound Dilution: The compound to be tested was prepared as a 100 μM DMSO solution, and then the compound was diluted 3-fold to 10 concentration points. The reference compound was prepared as a 100 μM DMSO solution, and then diluted 1.3-fold to 10 concentration points. The diluted DMSO solution was added to the wells of a 384-well plate in a volume of 200 nL per well. 2. […] The 384-well microplate was incubated at 37° C., 5% CO2 for 16 hours. 4. 6 μL of 1 mM LiveBLAzer™-FRET B/G (CCF4-AM) substrate was mixed with 60 μL of B solution and 934 μL of C solution, and added to the wells of the 384-well plate in a volume of 8 μL per well. […] The 384-well microplate was incubated in dark for 2 hours at room temperature. 6. […] 7.

T2 sequence (Q96RI1 with tags, fused parts or gaps limits assumed): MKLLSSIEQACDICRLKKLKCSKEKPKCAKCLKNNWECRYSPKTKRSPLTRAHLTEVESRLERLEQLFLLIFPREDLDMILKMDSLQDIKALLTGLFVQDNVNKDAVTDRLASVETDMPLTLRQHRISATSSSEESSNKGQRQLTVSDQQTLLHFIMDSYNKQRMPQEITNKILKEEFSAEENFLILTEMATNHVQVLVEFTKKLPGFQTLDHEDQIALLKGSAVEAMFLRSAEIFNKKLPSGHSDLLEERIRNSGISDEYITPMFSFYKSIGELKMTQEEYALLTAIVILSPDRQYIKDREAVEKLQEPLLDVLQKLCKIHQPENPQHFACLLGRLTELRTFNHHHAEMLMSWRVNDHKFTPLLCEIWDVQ

Row | SMILES | EC50
15 | CC[C@H]1[C@@H](O)[C@@H]2[C@H](CC[C@]3(C)[C@@H]([C@H](C)CCn4cc(C(=O)O)ccc4=O)CC[C@@H]23)[C@@]2(C)CC[C@@H](O)C[C@@H]12 [Example 5] | 570 nM
16 | CC[C@H]1[C@@H](O)[C@@H]2[C@H](CC[C@]3(C)[C@@H]([C@H](C)CCn4ccc(C(=O)O)cc4=O)CC[C@@H]23)[C@@]2(C)CC[C@@H](O)C[C@@H]12 [Example 6] | 5160 nM
17 | CC[C@H]1[C@@H](O)[C@@H]2[C@H](CC[C@]3(C)[C@@H]([C@H](C)CCOc4cccc(C(=O)O)c4)CC[C@@H]23)[C@@]2(C)CC[C@@H](O)C[C@@H]12 [Example 7] | 60 nM
18 | CC[C@H]1[C@@H](O)[C@@H]2[C@H](CC[C@]3(C)[C@@H]([C@H](C)CCOc4cc(C(=O)O)ccn4)CC[C@@H]23)[C@@]2(C)CC[C@@H](O)C[C@@H]12 [Example 9] | 140 nM
19 | CC[C@H]1[C@@H](O)[C@@H]2[C@H](CC[C@]3(C)[C@@H]([C@H](C)CCOc4ccc(C(=O)O)nc4)CC[C@@H]23)[C@@]2(C)CC[C@@H](O)C[C@@H]12 [Example 10] | 200 nM
20 | CC[C@H]1[C@@H](O)[C@@H]2[C@H](CC[C@]3(C)[C@@H]([C@H](C)CCCn4cc(C(=O)O)ccc4=O)CC[C@@H]23)[C@@]2(C)CC[C@@H](O)C[C@@H]12 [Example 17] | 2500 nM
21 | CC[C@H]1[C@@H](O)[C@@H]2[C@H](CC[C@]3(C)[C@@H]([C@H](C)CCc4cccc(C(=O)O)c4)CC[C@@H]23)[C@@]2(C)CC[C@@H](O)C[C@@H]12 [Example 19] | 370 nM

Same assay, conditions: HEK-293T; read-out: FXR cell activity Efficacy

Row | SMILES | Emax
22 | CC[C@H]1[C@@H](O)[C@@H]2[C@H](CC[C@]3(C)[C@@H]([C@H](C)CCn4cc(C(=O)O)ccc4=O)CC[C@@H]23)[C@@]2(C)CC[C@@H](O)C[C@@H]12 [Example 5] | 190%
23 | CC[C@H]1[C@@H](O)[C@@H]2[C@H](CC[C@]3(C)[C@@H]([C@H](C)CCn4ccc(C(=O)O)cc4=O)CC[C@@H]23)[C@@]2(C)CC[C@@H](O)C[C@@H]12 [Example 6] | 132%
24 | CC[C@H]1[C@@H](O)[C@@H]2[C@H](CC[C@]3(C)[C@@H]([C@H](C)CCOc4cccc(C(=O)O)c4)CC[C@@H]23)[C@@]2(C)CC[C@@H](O)C[C@@H]12 [Example 7] | 140%
25 | CC[C@H]1[C@@H](O)[C@@H]2[C@H](CC[C@]3(C)[C@@H]([C@H](C)CCOc4cc(C(=O)O)ccn4)CC[C@@H]23)[C@@]2(C)CC[C@@H](O)C[C@@H]12 [Example 9] | 130%
26 | CC[C@H]1[C@@H](O)[C@@H]2[C@H](CC[C@]3(C)[C@@H]([C@H](C)CCOc4ccc(C(=O)O)nc4)CC[C@@H]23)[C@@]2(C)CC[C@@H](O)C[C@@H]12 [Example 10] | 138%
27 | CC[C@H]1[C@@H](O)[C@@H]2[C@H](CC[C@]3(C)[C@@H]([C@H](C)CCCn4cc(C(=O)O)ccc4=O)CC[C@@H]23)[C@@]2(C)CC[C@@H](O)C[C@@H]12 [Example 17] | 131%
28 | CC[C@H]1[C@@H](O)[C@@H]2[C@H](CC[C@]3(C)[C@@H]([C@H](C)CCc4cccc(C(=O)O)c4)CC[C@@H]23)[C@@]2(C)CC[C@@H](O)C[C@@H]12 [Example 19] | 143%
